Test results: patent publication US11648258B2, “Method and compounds for inhibiting the MCM complex and their application in cancer treatment” (priority 2012, dated 2023)
Entries after “also recorded” stand apart in the source; their conditions may differ. Read-outs that look alike come from different tables or passages of the source.

Experiments:
[1] = test system: cancer cell lines (HepG2, Hep3B, HeLa, HK1, C666-1); experiment: cells; assay type: cell-based, human; settings: for anti-proliferative (anticancer) activity, in words: 48 hrs
Method: (§1) For testing the anti-proliferation activity of the compounds in human cell lines and calculation of IC50, cancer cells including HepG2, HeLa and Hep3B (4×10^5 cells/well) and normal L-02 cells (5×10^5 cells/well) were respectively seeded in 96-well plates in 100 μl of culture medium and incubated for about 12 hrs at 37° C. The cells were treated with two-fold serial dilutions of the drugs for 48 hrs. Medium was removed and 100 μl of culture medium containing 1 μM WST-1 (water soluble tetrazolium-1) were added to each well. The cells were incubated for 2 hrs, and absorbance at 405 nm (reference at 630 nm) was then measured. To construct the standard curve of the relationship between cell number and absorbance at OD405, serial dilutions of cells with known cell numbers were seeded and incubated for six hrs before being measured by the WST-1 assay. The cell viability was expressed as the ratio of the number of live cells treated with a candidate compound versus that of the DMSO-treated cells.
(§2) To further test 17beta-Deacetyltanghinin and to determine the IC50 values, besides L-02 and HepG2, Hep3B (another liver cancer cell line which is p53-negative), HeLa (cervical cancer cell line), HK1 and C666-1 (nasopharyngeal carcinoma) cells and a hTert-immortalized normal nasopharyngeal cell line (NP460) were treated by 17beta-Deacetyltanghinin for 48 hrs, and the relative cell vabilities were determined by WST-1 assay (FIG. 2B, C).

[2] = biological target: T1, hMcm2-hMcm6 interaction (MCM complex) (Homo sapiens, UniProt P49736+Q14566); experiment: Co-immunoprecipitation of MCM subunits in HeLa cell extracts; assay type: cell-based; settings: asynchronous HeLa cells, whole cell extracts
T1 construct: endogenous in cells; host or cells: HeLa
T1 sequence (P49736 2-904 limits assumed): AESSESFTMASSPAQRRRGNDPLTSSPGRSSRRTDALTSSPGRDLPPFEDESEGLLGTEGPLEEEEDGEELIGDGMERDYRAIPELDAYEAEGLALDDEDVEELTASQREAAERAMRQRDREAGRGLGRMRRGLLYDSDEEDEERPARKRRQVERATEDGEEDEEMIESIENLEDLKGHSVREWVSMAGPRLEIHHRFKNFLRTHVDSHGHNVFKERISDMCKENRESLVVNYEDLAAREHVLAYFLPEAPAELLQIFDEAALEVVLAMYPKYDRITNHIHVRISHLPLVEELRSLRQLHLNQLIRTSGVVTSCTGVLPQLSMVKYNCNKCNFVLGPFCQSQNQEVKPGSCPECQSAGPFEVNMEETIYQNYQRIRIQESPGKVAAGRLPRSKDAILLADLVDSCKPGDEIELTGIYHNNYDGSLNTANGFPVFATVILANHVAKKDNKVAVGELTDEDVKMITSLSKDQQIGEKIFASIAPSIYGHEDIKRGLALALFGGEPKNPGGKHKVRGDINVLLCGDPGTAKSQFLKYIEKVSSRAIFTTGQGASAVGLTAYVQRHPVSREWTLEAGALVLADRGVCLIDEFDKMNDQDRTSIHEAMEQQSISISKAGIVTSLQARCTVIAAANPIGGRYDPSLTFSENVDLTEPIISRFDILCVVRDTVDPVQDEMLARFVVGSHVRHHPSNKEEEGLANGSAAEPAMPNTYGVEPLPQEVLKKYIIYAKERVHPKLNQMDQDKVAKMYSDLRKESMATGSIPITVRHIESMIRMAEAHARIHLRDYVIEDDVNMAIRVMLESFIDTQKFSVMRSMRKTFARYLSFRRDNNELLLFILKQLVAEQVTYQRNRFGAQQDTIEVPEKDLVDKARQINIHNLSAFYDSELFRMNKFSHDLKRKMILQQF
T1 sequence (Q14566 whole entry): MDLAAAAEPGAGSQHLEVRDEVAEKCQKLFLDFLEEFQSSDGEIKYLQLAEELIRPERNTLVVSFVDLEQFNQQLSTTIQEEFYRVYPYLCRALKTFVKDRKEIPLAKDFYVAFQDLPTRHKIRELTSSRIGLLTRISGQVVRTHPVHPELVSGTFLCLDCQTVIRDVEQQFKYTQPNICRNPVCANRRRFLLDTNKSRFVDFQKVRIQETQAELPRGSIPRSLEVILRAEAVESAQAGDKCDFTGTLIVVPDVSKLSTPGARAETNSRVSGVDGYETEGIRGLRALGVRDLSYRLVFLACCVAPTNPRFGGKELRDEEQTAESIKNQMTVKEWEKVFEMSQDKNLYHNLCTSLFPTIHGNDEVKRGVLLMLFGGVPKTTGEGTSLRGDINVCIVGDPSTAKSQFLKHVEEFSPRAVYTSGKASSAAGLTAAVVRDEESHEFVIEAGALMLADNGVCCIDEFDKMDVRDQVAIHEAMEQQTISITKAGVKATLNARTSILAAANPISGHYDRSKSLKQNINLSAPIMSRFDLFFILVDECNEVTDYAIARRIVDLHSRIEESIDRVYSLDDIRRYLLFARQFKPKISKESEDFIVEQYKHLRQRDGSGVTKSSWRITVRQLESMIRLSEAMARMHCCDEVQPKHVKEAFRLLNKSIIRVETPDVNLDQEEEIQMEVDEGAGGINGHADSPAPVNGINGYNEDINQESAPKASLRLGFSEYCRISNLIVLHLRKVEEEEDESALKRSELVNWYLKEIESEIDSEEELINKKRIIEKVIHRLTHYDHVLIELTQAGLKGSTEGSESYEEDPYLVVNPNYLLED
Method: To test if 17beta-Deacetyltanghinin targets hMcm2 and hMcm6 proteins in human cells, possible co-immunoprecipitation (co-IP) of the two proteins was tested in human cell extracts from cells treated with 17beta-Deacetyltanghinin. In FIG. 3, asynchronous HeLa cells were treated with DMSO or 17beta-Deacetyltanghinin (DAT) (FIG. 3A), or with DMSO, 17beta-Neriifolin (NRF) or 17beta-Deacetyltanghinin diol (Diol) (FIG. 3B), and whole cell extracts were prepared and further incubated with the compound before being used for co-IP in the presence of the compound. The immunoprecipitates were then immunoblotted with anti-hMcm 6, anti-hMcm2, anti-hMcm4 and anti-hMcm7 antibodies.

hMcm2 and hMcm6 = biological target: T2, hMcm2 and hMcm6 (Homo sapiens, UniProt P49736+Q14566); experiment: Immunostaining / GFP fluorescence microscopy of MCM nuclear localization in HeLa cells; assay type: cell-based; settings: 24 hrs
T2 construct: the endogenous hMcm2 and hMcm6 were detected by specific antibodies against these proteins; endogenous in cells; host or cells: HeLa
T2 sequence (P49736 2-904): as the sequence (P49736 2-904 limits assumed) above
T2 sequence (Q14566 whole entry): as the sequence (Q14566 whole entry) above
Method: To study the effect of the anticancer compounds on the interaction between hMcm2 and hMcm6 in the cells, immunostaining was performed to detect the sub-cellular localization of the proteins. HeLa cells grown on cover slips (coated with poly-D-lysine) with or without drug treatment were fixed with 4% PFA in PBS at room temperature for 20 min. After permeabilization with 0.1% Triton X-100 and 1% BSA in PBS for 20 min, cells were blocked with 1% BSA and then incubated with rabbit anti-hMcm6 (Santa Cruz; 1:500) and mouse anti-hMcm2 (Becton Dickinson; 1:500) primary antibodies at room temperature for 1 hr. Cells were then incubated with Alexa Fluor 488-conjugated donkey […] antibody and Alexa Fluor 594-conjugated donkey anti-mouse antibody (Invitrogen; 1:500) at room temperature for 1 hr. Three washes with PBS were performed after each round of antibody incubation. Cells were then incubated with Hochest 33852 (Sigma Chemical Company; 1 μg/ml) at room temperature for 15 min for nuclear staining and washed with PBS three times again. At last, cells were mounted and observed under the fluorescence microscope (Nikon TE2000E).
Because pair-wise interactions among the MCM subunits are required for the MCM heterohexameric ring structure, which is essential for their import into the nucleus, disruption of the interaction between hMcm2 and hMcm6 should destroy the hexamer and result in failure of nuclear localization of MCM proteins. To test this, we employed both indirect fluorescence microscopy (immunostaining) using antibodies against the endogenous MCM proteins and direct fluorescence microscopy after transfection with plasmids to express hMcm2-GFP and hMcm6-GFP in the cells.
In immunostaining, HeLa cells were treated by 17beta-Deacetyltanghinin for 24 hrs, and the endogenous hMcm2 and hMcm6 were detected by specific antibodies against these proteins. […] In direct fluorescence microscopy, HeLa cells expressing hMcm2-GFP and hMcm6-GFP were treated with 17beta-Deacetyltanghinin for 36 hrs starting at 4 hrs post-transfection with the plasmids expressing hMcm2-GFP and hMcm6-GFP.

[3] = test system: cancer cells (HeLa, HepG2); experiment: Flow cytometry / Annexin V staining (cell cycle, apoptosis) in cancer cells; assay type: cell-based, human; settings: cancer cells
Method: Both floating and attached cells were collected and washed once with PBS. Cells were fixed in 70% ethanol for 1 hr to overnight at −20° C., washed thoroughly with PBS, and then stained in 50 μg/ml RNase A, 0.1% Triton X-100, 0.1 mM EDTA (pH 7.4), and 50 μg/ml propidium iodide for 30 min at 4° C. Samples were analyzed with the FACSort instrument (Becton Dickinson).
Moreover, inhibition of DNA replication and subsequent induction of apoptosis by 17beta-Deacetyltanghinin could be shown by flow cytometry. In FIG. 7. Hela cells were blocked at M phase by Nocodazole (Noc.; FIG. 7A), the G1/S transition by mimosine (MMS; FIG. 7B), or at early S phase by Hydroxyurea (HU; FIG. 7C) and then released into fresh medium in the presence of 17beta-Deacetyltanghinin (DAT). The cells at different time points after release were analyzed by follow cytometry. Ayn. means asynchronous cells. Untreated cells and cells treated with the solvent DMSO could complete M, G1 and S phases after release (FIG. 7A). […] Similarly, cells released from the Mimosine (MMS) arrest (at the G1/S transition; FIG. 7B) or Hydroxyurea (HU) arrest (in early S phase; FIG. 7C) could not finish S phase in the presence of 17beta-Deacetyltanghinin.
In FIG. 8A, flow cytometry was performed to analyze the DNA contents in HepG2 and L-02 cells treated with 17beta-Deacetyltanghinin at various concentrations for 24 hrs. In FIG. 8B, Hela cells were treated with 17beta-Deacetyltanghinin for 24 hrs and labeled with Annexin V-Cy3 (Arm. Cy3) for 20 min. Mitoxantrone (MTX), a clinical anticancer drug that can induce apoptosis in cancer cells, was used as a positive control.

[4] = test system: L-02 cells (normal human liver cells); experiment: in vitro; settings: compound 0.5 ∝g/ml; WST-1
Method: as §1
(§3) A pair of human cell lines, L-02 (normal liver cells) and HepG2 (a liver cancer cell line) was treated with 17beta-Deacetyltanghinin for 48 hrs. […] In FIG. 2B-H, quantification of viable cell numbers was carried out using WST-1 (Water-soluble tetrazolium-1) assay.
as §2

[5] = test system: HepG2 cells (hepatocellular carcinoma); settings: compound 0.5 ∝g/ml; WST-1
[6] = test system: HeLa cells xenograft tumors; experiment: In vivo anticancer activity, nude mice xenograft model; settings: 10 mg/kg per injection, first 10 days
Method: In vivo anticancer activity tests were carried out in the nude mice xenograft model by inoculating nude mice with HeLa cells in both the left and right flanks. After random grouping, nude mice were treated intraperitoneally with 17beta-Deacetyltanghinin or the solvent (30% of propylene glycol in PBS). In the first test, 3 days after tumor inoculation when small tumors started to form, two groups of nude mice were treated on days 1-3 and 6-10 with 3.5 and 7.0 mg-drug/kg-body weight of 17beta-Deacetyltanghinin respectively, and another group of control mice were treated with the same volume of the solvent (FIG. 10A). In FIG. 10A, the tumor volume data represented by the small-size data point symbol linked with thin lines were obtained on the days when both measurement of tumor size and drug injections were performed, and the tumor volume data represented by the large-size data point symbol linked with thick lines were obtained on the days without drug injection. Each tumor size was average of ten tumors in five mice in each group.
(§4) A further set of animal experiments was then conducted with a longer period of time, in which fifteen drug injections at 5.0 mg/kg were performed one week after tumor inoculation when the tumor size reached 0.05-0.1 cm^3. In FIG. 10B, drug injections and tumor size measurements were performed on the days represented by the data points, and the photographs in FIG. 10C were taken on day 20.

[7] = In vivo toxicity assessment in nude mice; settings: 10 mg/kg per injection, tumor-bearing nude mice
Method: as §4
In FIG. 11, S refers to solvent-treated mice without tumor inoculation; S+T represents solvent-treated mice with tumor inoculation; DAT refers to 17beta-Deacetyltanghinin-treated mice without tumor inoculation; DAT+T represents 17beta-Deacetyltanghinin-treated mice with tumor inoculation; and P+T refers to Paelitaxel-treated mice with tumor inoculation. Three out of the five mice with intermediate tumor size in each group were selected for physiological parameters examination. The tumors (T) and internal organs including liver (L), heart (H) and kidney (K) were dissected from each mouse.
Furthermore, blood from each mouse was also collected for the tests of the ALT (alanine aminotransferase) and LDH (Lactate dehydrogenase) activities. […] The results of both tests were represented as the values of differently treated mice relative to the untreated ones.

in vitro = settings: human
Method: as §1, §3, §2

17beta-Deacetyltanghinin diol
anti-proliferative (anticancer) activity, in words ([1]; WST-1 assay): lower anticancer activity than 17beta-Deacetyltanghinin
disruption of hMcm2-hMcm6 interaction (co-IP) [2]: weaker activity
nuclear localization of endogenous hMcm2 and hMcm6 (immunostaining) (hMcm2 and hMcm6): weaker activity
induction of apoptosis (sub-G1 population, flow cytometry) [3]: able to induce apoptosis of cancer cells

CO[C@H]1[C@H](O)[C@H](O[C@H]2CC[C@@]3(C)[C@H](CC[C@@H]4[C@@H]3CC[C@]3(C)[C@H](C5=CC(=O)OC5)CC[C@]43O)C2)O[C@@H](C)[C@@H]1O [17alpha-Neriifolin, reference compound]
L-02 cell viability (%) [4]: 100%
anti-proliferative (anticancer) activity, in words ([1]; WST-1 assay): little anti-proliferative activity
HepG2 cell viability (%) [5]: 100%

CC(=O)O[C@H]1C(=O)[C@@]2(C)[C@H]([C@H](OC(=O)c3ccccc3)[C@]3(O)C[C@H](OC(=O)[C@H](O)[C@@H](NC(=O)c4ccccc4)c4ccccc4)C(C)=C1C3(C)C)[C@]1(OC(C)=O)CO[C@@H]1C[C@@H]2O [Paclitaxel, reference compound]
selectivity between cancer and normal cells, in words [1]: did not show significant selectivity; also recorded: more toxic to normal liver cells than liver cancer cells
antitumor activity compared with 17beta-Deacetyltanghinin, in words [6]: much less antitumor activities
mortality from toxicity [7]: the mice died on day 10

COc1cc([C@@H]2c3cc4c(cc3[C@@H](O[C@@H]3O[C@@H]5CO[C@@H](C)O[C@H]5[C@H](O)[C@H]3O)[C@H]3COC(=O)[C@H]23)OCO4)cc(OC)c1OP(=O)(O)O [VP16, Etoposide phosphate]
selectivity between cancer and normal cells, in words ([1]; cancer vs normal cells, WST-1 assay): did not show significant selectivity

CC(=O)O[C@H]1[C@H]2O[C@]23[C@@H]2CC[C@@H]4C[C@@H](O)CC[C@]4(C)[C@H]2CC[C@]3(C)[C@H]1c1ccc(=O)oc1 [Cinobufagin]
viability (in vitro): 39.7%
HepG2 cell viability (%) [5]: 1.5%

C[C@]12CC[C@H](O)C[C@H]1CC[C@@H]1[C@@H]2CC[C@]2(C)[C@@H](c3ccc(=O)oc3)CC[C@]12O [Bufalin]
viability (in vitro): 37.2%
HepG2 cell viability (%) [5]: 13.7%

CO[C@H]1[C@H](O)[C@H](O[C@H]2CC[C@@]3(C)[C@@H](C2)C[C@@H]2O[C@]24[C@@H]3CC[C@]2(C)[C@H](C3=CC(=O)OC3)CC[C@]42O)O[C@@H](C)[C@@H]1O [17alpha-Deacetyltanghinin, reference compound]
L-02 cell viability (%) [4]: 100%
anti-proliferative (anticancer) activity, in words ([1]; WST-1 assay): little anti-proliferative activity
HepG2 cell viability (%) [5]: 97.2%

CO[C@H]1[C@H](O)[C@H](O[C@H]2CC[C@@]3(C)[C@H](CC[C@@H]4[C@@H]3CC[C@]3(C)[C@@H](C5=CC(=O)OC5)CC[C@]43O)C2)O[C@@H](C)[C@@H]1O [17beta-Neriifolin]
disruption of hMcm2-hMcm6 interaction (co-IP) [2]: could also disrupt the hMcm2-hMcm6 interaction
nuclear localization of endogenous hMcm2 and hMcm6 (immunostaining) (hMcm2 and hMcm6): as efficiently as 17beta-Deacetyltanghinin
induction of apoptosis (sub-G1 population, flow cytometry) [3]: able to induce apoptosis of cancer cells

C[C@]12CC[C@H](O)C[C@H]1CC[C@@H]1[C@@H]2CC[C@]2(C)[C@@H](c3ccc(=O)oc3)C[C@H]3O[C@]132 [Resibufogenin]
viability (in vitro): 37.9%
HepG2 cell viability (%) [5]: 1.4%
